Key:
XCL-1 hiPSC CRBN Mock = experiment: LPM differentiation assay (FOXF1 high content imaging), XCL-1 CRBN Mock clone; format: cell-based; conditions: Homo sapiens, 48 h, % FOXF1+ cells after 2 d in APEL2+GSKi, read-out: IC50 (±SEM) in LPM differentiation assay
Method: On the day after seeding, the medium was replaced with 100 µL/well of mTeSR-1 (control) or APEL2 + GSKi containing either DMSO or diluted compounds (for a final DMSO concentration of 0.2%). The same conditions were replenished the following day for a total of 2 d of differentiation, and the following day (3 d after seeding), the medium was aspirated, and hiPSCs were fixed in 10% NBF for 15 min at room temperature.
(§2) Immunofluorescence staining was carried out by fixing/permeabilizing cells overnight in blocking buffer containing 3% BSA (Sigma) in DPBS-T, which contains DPBS + Ca^2+//Mg^2+ with 0.3% Triton-X100 (Sigma). Fixed and permeabilized cells were incubated in primary antibodies diluted (as noted in Table 1) in antibody buffer, consisting of 1% BSA in DPBS-T, overnight at 4 °C.
(§3) Cells were washed in blocking buffer for >6 hours at 4 °C and subsequently incubated in secondary antibody diluted in antibody buffer overnight at 4 °C. Secondary antibodies were washed out in antibody buffer for >4 h at 4 °C, and hiPSCs were counterstained with DAPI (Fisher) at 10 µg/mL in DPBS-T for 2 h. hiPSCs were washed in DPBS-T for >2 h at 4 °C, and immediately before imaging, the DPBS-T was replaced with DPBS. […] Chemical dose-response experiments and experiments examining the time-course of marker expression during LPM differentiation were imaged at 10X magnification using the Cellomics ArrayScan or CellInsight Cx7 LZR High Content Screening Platform and HCS Studio Cell Analysis Software (Thermo Fisher). An artificial threshold was uniformly applied to all images to generate the percentage of DAPI+ nuclei that stained positively for FOXF1 or NANOG. Thresholding for FOXF1 and T was performed relative to undiffer-entiated hiPSCs, and thresholding for SALL4 and OCT4 was performed relative to a non-expressing cell type (human primary endothelial cells). Settings for image acquisition and processing were uniformly applied between XCL-1 clones. […] Experiments were repeated in quadruplicate unless otherwise stated, and data are presented as mean ± SEM. Nonlinear regression analysis was performed using the 4-parameter [inhibitor]-vs-response curve fitting algorithm in Prism (GraphPad).

SALL4 = molecular target: T1, SALL4 (Homo sapiens, UniProt Q96SW2+Q9UJQ4); experiment: SALL4 nuclear protein expression (MFI) by high content imaging, Gibco hiPSCs; format: cell-based
T1 construct: Unmodified Gibco hiPSCs were either differentiated in APEL2 + GSKi or maintained in mTeSR1, and SALL4 nuclear protein expression was monitored; endogenous in cells; host or cells: Gibco hiPSCs; XCL-1 SALL4 mock hiPSC clone
T1 sequence (Q9UJQ4 whole entry): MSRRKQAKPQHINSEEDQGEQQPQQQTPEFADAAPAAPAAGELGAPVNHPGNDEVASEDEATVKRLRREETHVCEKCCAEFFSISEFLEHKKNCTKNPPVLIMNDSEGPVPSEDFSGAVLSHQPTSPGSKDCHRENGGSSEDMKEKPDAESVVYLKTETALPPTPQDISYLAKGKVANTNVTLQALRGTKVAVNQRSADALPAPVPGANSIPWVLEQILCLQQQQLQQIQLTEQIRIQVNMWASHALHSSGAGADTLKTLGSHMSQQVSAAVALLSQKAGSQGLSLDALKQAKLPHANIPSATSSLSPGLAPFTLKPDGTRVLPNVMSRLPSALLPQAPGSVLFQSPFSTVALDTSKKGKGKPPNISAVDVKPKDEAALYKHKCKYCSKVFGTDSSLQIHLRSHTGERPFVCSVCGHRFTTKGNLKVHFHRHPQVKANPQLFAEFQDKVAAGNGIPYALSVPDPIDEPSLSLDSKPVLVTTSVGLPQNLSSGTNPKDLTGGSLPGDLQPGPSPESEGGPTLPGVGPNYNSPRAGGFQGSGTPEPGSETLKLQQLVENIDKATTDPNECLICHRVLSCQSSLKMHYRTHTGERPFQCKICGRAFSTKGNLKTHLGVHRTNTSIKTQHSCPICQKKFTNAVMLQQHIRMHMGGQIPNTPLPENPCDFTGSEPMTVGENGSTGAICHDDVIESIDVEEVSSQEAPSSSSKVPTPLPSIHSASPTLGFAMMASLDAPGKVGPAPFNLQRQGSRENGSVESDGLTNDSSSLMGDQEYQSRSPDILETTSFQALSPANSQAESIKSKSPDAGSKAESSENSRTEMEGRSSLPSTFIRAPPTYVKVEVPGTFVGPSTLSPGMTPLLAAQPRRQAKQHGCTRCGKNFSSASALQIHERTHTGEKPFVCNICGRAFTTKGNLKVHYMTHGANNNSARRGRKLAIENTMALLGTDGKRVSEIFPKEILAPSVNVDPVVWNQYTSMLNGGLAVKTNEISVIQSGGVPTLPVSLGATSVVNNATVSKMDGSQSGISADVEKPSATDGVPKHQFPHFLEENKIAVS
T1 sequence (Q96SW2 whole entry): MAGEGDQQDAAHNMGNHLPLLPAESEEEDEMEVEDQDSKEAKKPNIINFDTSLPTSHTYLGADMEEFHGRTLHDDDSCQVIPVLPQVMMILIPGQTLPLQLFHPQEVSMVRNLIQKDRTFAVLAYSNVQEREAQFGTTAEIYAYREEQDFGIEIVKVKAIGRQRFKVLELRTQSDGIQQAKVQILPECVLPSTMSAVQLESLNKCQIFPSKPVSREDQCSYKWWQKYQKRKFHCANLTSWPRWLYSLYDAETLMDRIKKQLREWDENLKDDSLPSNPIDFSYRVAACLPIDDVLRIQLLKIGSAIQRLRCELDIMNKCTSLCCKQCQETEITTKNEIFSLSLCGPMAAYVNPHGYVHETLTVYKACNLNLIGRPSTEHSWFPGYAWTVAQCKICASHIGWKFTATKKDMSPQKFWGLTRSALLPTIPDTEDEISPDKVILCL
T1 sequence (Q16531 whole entry partner): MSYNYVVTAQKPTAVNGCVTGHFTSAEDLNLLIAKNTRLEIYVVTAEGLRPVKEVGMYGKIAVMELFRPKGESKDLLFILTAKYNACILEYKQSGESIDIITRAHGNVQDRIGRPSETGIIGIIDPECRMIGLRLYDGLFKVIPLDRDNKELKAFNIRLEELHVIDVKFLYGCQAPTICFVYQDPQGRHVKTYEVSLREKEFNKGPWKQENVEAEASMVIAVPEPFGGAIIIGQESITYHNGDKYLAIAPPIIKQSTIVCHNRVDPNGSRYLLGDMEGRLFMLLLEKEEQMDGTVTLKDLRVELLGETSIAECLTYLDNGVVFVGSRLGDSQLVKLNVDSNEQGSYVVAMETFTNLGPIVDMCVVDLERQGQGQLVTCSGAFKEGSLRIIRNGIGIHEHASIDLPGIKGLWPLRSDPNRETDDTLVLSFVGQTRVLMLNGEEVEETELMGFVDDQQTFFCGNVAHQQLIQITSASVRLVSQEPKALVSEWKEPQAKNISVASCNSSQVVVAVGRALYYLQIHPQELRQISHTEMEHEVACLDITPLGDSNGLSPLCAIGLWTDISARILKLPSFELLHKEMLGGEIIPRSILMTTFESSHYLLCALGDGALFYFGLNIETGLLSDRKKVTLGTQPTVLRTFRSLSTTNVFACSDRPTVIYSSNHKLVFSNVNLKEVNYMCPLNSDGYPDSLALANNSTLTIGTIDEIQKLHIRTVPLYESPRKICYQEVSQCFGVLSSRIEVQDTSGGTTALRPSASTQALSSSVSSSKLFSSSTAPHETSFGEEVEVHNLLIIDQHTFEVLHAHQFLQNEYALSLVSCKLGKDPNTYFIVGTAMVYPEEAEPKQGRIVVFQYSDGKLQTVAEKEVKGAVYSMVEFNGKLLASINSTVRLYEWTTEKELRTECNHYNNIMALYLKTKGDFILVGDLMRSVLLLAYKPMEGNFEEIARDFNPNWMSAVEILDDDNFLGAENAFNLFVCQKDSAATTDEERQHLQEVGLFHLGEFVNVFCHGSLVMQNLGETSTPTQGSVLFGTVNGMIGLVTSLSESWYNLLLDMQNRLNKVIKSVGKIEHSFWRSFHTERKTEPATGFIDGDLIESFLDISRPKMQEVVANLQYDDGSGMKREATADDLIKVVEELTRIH
Source text: (§1) High content imaging analysis of SALL4 immunofluorescence with DAPI counterstaining in hiPSCs. […] Data represent the mean +/− SEM from 2 independent experiments.

SALL4^G416A = molecular target: T2, SALL4^G416A (Homo sapiens, UniProt Q9UJQ4, G416A); experiment: SALL4 MFI by high content imaging, XCL-1 SALL4^G416A hiPSCs; format: cell-based; conditions: SALL4^G416A hiPSC clone, 8 h of treatment
T2 construct: parental hiPSCs were engineered to express a homozygous G416A mutation in the endogenous SALL4 locus; endogenous in cells; host or cells: XCL-1 SALL4^G416A hiPSC clone (1E6), CRISPR/Cas9 knock-in at the endogenous locus
T2 sequence (Q96SW2 whole entry partner): as the sequence (Q96SW2 whole entry) above
T2 sequence (Q16531 whole entry partner): as the sequence (Q16531 whole entry partner) above
T2 sequence (Q9UJQ4 whole entry G416A): as the sequence (Q9UJQ4 whole entry) above, with G416A counted along it
Source text: as §1

Gibco hiPSCs [1] = experiment: 3D chondrogenic differentiation after LPM differentiation, DMMB assay for sGAG; format: cell-based, human; conditions: during 2 d LPM differentiation, then 18 d chondrogenic differentiation; for sGAG/DNA content compared to the DMSO control: thalidomide 20 µM, atRA 3 µM; for reduction of sGAG/DNA content upon chondrogenic differentiation in 3D: thalidomide at 20 µM, atRA at 3 µM
Method: For 3D differentiation studies, Gibco hiPSCs were encapsulated in fibrin at 2–4 × 10^6 cells/mL. hiPSCs were passaged with Versene (as described above) and were suspended as small clumps in a solution composed of a 1:4:5:10 dilution of 200 mM CaCl2 in DI water, 50 U/mL human thrombin (Sigma) in 0.1% cell culture BSA in DI water, DPBS, and hiPSC suspension in mTeSR1. The hiPSC suspension was mixed by pipetting, and 0.5 µL droplets of suspended hiPSCs were plated at the bottom of each well of a round-bottom sterile polypropylene plate. hiPSC suspensions were subsequently diluted 5-fold by pipetting up and down in each well with 2 µL of 10 mg/mL human fibrinogen (Sigma) in DPBS (sterile filtered prior to use). Fibrin clot formation proceeded for 10 minutes at room temperature prior to addition of mTeSR-1 and incubation under normal culture conditions overnight. […] For chondrogenic differentiation experiments, cells were cultured in APEL2 + GSKi for the described duration, followed by culture in ACF MesenCult chondrogenic differentiation medium (Stem Cell Technologies) for 17–20 days under normal culture conditions. Encapsulated hiPSCs were characterized by qRT-PCR as described above, except cells were lysed by bead-based homogenization (Bead Mill 4, Thermo Fisher) in buffer RLT that was supplemented with 1% β-mercaptoethanol. RNeasy procedure was carried out per manufacturer’s instructions, including the optional DNase step. Purified RNA samples were stored at −20 °C before analysis using Taqman primer/probes (Thermo Fisher) and fast advanced master mix (Thermo Fisher) on a QuantStudio 5 (Thermo). Samples were compared using normalization to the ACTB in each sample and the control for each experiment using the 2^−ΔΔCT method.
Alternatively, encapsulated hiPSCs were characterized for sulfated glycosaminoglycan (sGAG) content using the dimethylmethylene blue (DMMB) assay protocol[33],[34]. […] After addition of DMMB assay buffer, samples were immediately read at 525 nm, and sGAG composition was calculated in each sample by comparison to a chondroitin sulfate standard that was dissolved in digestion buffer. sGAG content (in µg/mL) was normalized to dsDNA content (in µg/mL) in each sample.
Figure 7 Characterization of hiPSC chondrogenic differentiation in 3D by DMMB assay for sulfated glycosaminoglycans. Chondrogenic differentiation of hiPSCs was assessed by culturing hiPSCs in fibrin gels followed by culture in APEL2/GSKi and subsequent culture in chondrogenic differentiation medium for a total of 21 days in culture after encapsulation. The influence of the duration of LPM differentiation or of chemical treatment during LPM differentiation (for 2 days) on chondrogenic differentiation was assessed by sulfated glycosaminoglycan assay on day 21. […]

hiPSCs = experiment: Viability of hiPSCs in 3D culture (CellTiter Glo 3D); format: cell-based, human; conditions: 20 µM thalidomide or 3 µM atRA, 2 d LPM differentiation in 3D fibrin
Method: Supplementary Figure 10. Normalized viability of hiPSCs differentiated to LPM for 2 days in 3D […]
µM atRA. Data represent replicate wells in a single experiment, n=6, of hiPSCs that were cultured in fibrin for 1 day in mTeSR1 followed by 2 days of culture in APEL2+GSKi in the presence of either 0.1% […]
differentiation, the medium was replaced with CellTiter Glo 3D reagent (diluted 1:1 in DPBS), and luminescence was measured on a plate reader.
Normalized luminescence is reported as mean +/- SD of 6 replicate wells per condition. No statistical differences was observed via one-way ANOVA and Dunnett’s post-hoc test (α=0.05).
(1 picture or pasted object on this page, not shown here)

Gibco hiPSCs [2] = experiment: LPM differentiation assay (FOXF1 high content imaging), Gibco hiPSCs; conditions: for IC50: Homo sapiens, 48 h, read-out: IC50 (±SEM) in LPM differentiation assay
Method: (§4) hiPSCs (Gibco or XCL-1 clones) were grown in mTeSR-1 on Matrigel, passaged into small clumps with Versene (4.5 min under normal culture conditions), counted as a single-cell suspension as described above, and seeded as small clumps at approximately 10,000 cells/well (30,000 cells/cm^2, ~15% confluence) in 100 µL mTeSR1 on Matrigel-coated µClear® 96-well plates (Greiner) for 1 d under normal culture conditions. On the day after seeding, the medium was replaced with 100 µL/well of mTeSR-1 (control) or APEL2 + GSKi containing either DMSO or diluted compounds (for a final DMSO concentration of 0.2%). The same conditions were replenished the following day for a total of 2 d of differentiation, and the following day (3 d after seeding), the medium was aspirated, and hiPSCs were fixed in 10% NBF for 15 min at room temperature.
as §2, §3

XCL-1 hiPSC SALL4 Mock = experiment: LPM differentiation assay (FOXF1 high content imaging), XCL-1 SALL4 Mock clone; conditions: Homo sapiens, 48 h, read-out: IC50 (±SEM) in LPM differentiation assay
Method: as §4, §2, §3

XCL-1 hiPSC SALL4^G416A = experiment: LPM differentiation assay (FOXF1 high content imaging), XCL-1 SALL4^G416A clone; conditions: Homo sapiens, 48 h, read-out: IC50 (±SEM) in LPM differentiation assay
Method: as §4, §2, §3
In addition, XCL-1 hiPSCs were engineered with CRISPR/Cas9 to express a homozygous SALL4 G416A mutation (hereafter referred to as the SALL4^G416A clone), and the homozygous SALL4 G416A mutation was confirmed by next-generation sequencing (Supplementary Fig. 2).

Row | effect on SALL4 MFI (SALL4; Gibco hiPSCs, 8 h of treatment, dose-response) | effect on SALL4 MFI (SALL4^G416A) | IC50 (Gibco hiPSCs [2]) [nM] | IC50 (XCL-1 hiPSC SALL4^G416A) [nM] | SMILES | IC50 (XCL-1 hiPSC CRBN Mock) [nM] | sGAG/DNA content compared to the DMSO control (Gibco hiPSCs [1]) | reduction of sGAG/DNA content upon chondrogenic differentiation in 3D (Gibco hiPSCs [1]) | normalized viability (CellTiter Glo 3D) versus DMSO (hiPSCs) | IC50 (XCL-1 hiPSC SALL4 Mock) [nM] | time-course of SALL4 MFI (SALL4; 20 µM, Gibco hiPSCs in mTeSR1 or APEL2+GSKi, 2, 8 and 24 h after dosing) | reduction of %FOXF1+ cells via high content imaging (Gibco hiPSCs [2]; thalidomide at 20 µM, atRA at 3 µM, during LPM differentiation) [%]
1 | did not reduce SALL4 MFI | unchanged | 820 ± 780 | 9100 ± 5900 | CC1=C(/C=C/C(C)=C/C=C/C(C)=C/C(=O)O)C(C)(C)CCC1 [atRA, all-trans retinoic acid] | 2700 ± 2000 | decreased sGAG/DNA content | complete abolishment | No statistical differences | 2940 ± 1200 |  | 
2 |  | unchanged | 310 ± 190 | > 50000 | O=C1CCC(N2C(=O)c3ccccc3C2=O)C(=O)N1 (stereo not shown) [Thalidomide, thalidomide] | 560 ± 450 | decreased sGAG/DNA content | 30% | No statistical differences | 690 ± 500 | rapid decline in SALL4 MFI 2 h after dosing | 30
